Where a name gives a salt, the structure may show the parent alone. Bridges are numbered along the chain shown (N, C = ends). Where no end group is shown, it is not given here.
How the values were obtained:
[1] = test system: mouse bone-marrow cells (CFU-E colonies); test: in vitro CFU-E colony assay under the existence of EPO mimic peptide EMP1; assay type: cell-based
Experimental: The bone-marrow cells were prepared by the same method as that of Example 1, using a male BDF-1 mouse of 10 weeks old (by Charles River Laboratories Japan, Inc.). 1 mL of a methylcellulose semisolid medium wherein the bone-marrow cells were suspended in the IMDM medium of ⅓ concentration (1, 3, 10 and 30 μM of EMP1; 100 μM of 2-mercaptoethanol by Wako Pure Chemical Industries, Ltd.; 24% FCS by JRH Biosciences; 0.8% methylcellulose, IMDM solution M3134 containing methylcellulose by StemCell Technologies Inc.; 2% BSA by Sigma-Aldrich Japan K.K.; and bone-marrow cells 2×10^5/mL) was added to a dish of 3.5 cm in diameter (Nalge Nunc International K.K.). After the medium was cultured at 37° C. under 5% CO2 for 48 hours, the number of CFU-E colonies was determined by using an inverted microscope. […] Data is indicated as the average value.
The in vitro CFU-E colony assay was conducted in the EMP1 concentration of the maximal action amount thereof. The bone-marrow cells were prepared by the same method as that of Example 1, using a male BDF-1 mouse of 10 weeks old (by Charles River Laboratories Japan, Inc.). […] After each medium was cultured at 37° C. under 5% CO2 for 48 hours, the number of CFU-E colonies was determined by using an inverted microscope. […] Data is indicated as the average value. The vertical axis is the relative value (%) when regarding the number of CFU-E colonies in the control case as 100%.

[2] = test system: mouse bone-marrow cells (CFU-E colonies); test: in vitro CFU-E colony assay in methylcellulose semisolid medium under the existence of EPO; assay type: cell-based; conditions: for CFU-E inhibiting action (inhibition of expression of CFU-E colonies) / CFU-E inhibiting action (expression of CFU-E colonies): 48 hours
Experimental: (§1) More specifically, the in vitro colony assay method wherein a methylcellulose semisolid medium is used is generally used as the method for determining CFU-E. It is the most suitable experimental system for finding the action of improving the decrease of CFU-E caused by chemotherapy agents. […] In the oral administration to rats, the single administration of 1.2 g/kg of arginine makes the blood concentration thereof reach around 600 μM. Therefore, the increase of CFU-E dependent on the administered dose is expected in the oral administration. In human beings, too, it is expected that the number of CFU-E increases depending on the blood concentration of arginine by the oral administration.
The in vitro CFU-E colony assay was conducted as follows. After making a male BDF-1 mouse of 11 weeks old (by Charles River Laboratories Japan, Inc.) die by the cervical dislocation method, the bone-marrow cells were isolated from the thighbone and suspended in the IMDM medium (by Invitrogen Corporation) which contained 10% FCS (by JRH Biosciences). The bone-marrow cells were centrifuged at 1500 rpm for 10 minutes at 4° C. Then, the precipitated bone-marrow cells were substituted on the IMDM medium without an amino acid, and the number of the cells was determined. 1 mL of a methylcellulose semisolid medium wherein the bone-marrow cells were suspended in the IMDM medium of ⅓ concentration (0.03, 0.1, 0.3 and 1.0 U/mL of rHuEPO by Chugai Pharmaceutical Co., Ltd.; 100 μM of 2-mercaptoethanol by Wako Pure Chemical Industries, Ltd.; 15% FCS by JRH Biosciences; 0.8% methylcellulose, IMDM solution M3134 containing methylcellulose by StemCell Technologies Inc.; 1% BSA by Sigma-Aldrich Japan K.K.; and bone-marrow cells 2.5×10^5/mL) was added to a dish of 3.5 cm in diameter (Nalge Nunc International K.K.). After the medium was cultured at 37° C. under 5% CO2 for 48 hours, the number of CFU-E colonies was determined by using an inverted microscope. […] Data is indicated as the average value.
The in vitro CFU-E colony assay was conducted in the EPO concentration of the maximal action amount thereof. […] Then, the number of CFU-E colonies was determined by using an inverted microscope. […] Data is indicated as the average value.
The CFU-E colony assay was conducted by the same method as that of Example 1. […] Data is indicated as the average value. The vertical axis is the relative value (%) when regarding the number of CFU-E colonies in the control case as 100%.
The in vitro CFU-E colony assay was conducted in the EPO concentration of the maximal action amount thereof. The bone-marrow cells were prepared by the same method as that of Example 1, using a male BDF-1 mouse of 12 weeks old (by Charles River Laboratories Japan, Inc.). Irinotecan hydrochloride was further added to a methylcellulose semisolid medium wherein the bone-marrow cells were suspended in the IMDM medium of ⅓ concentration (1.0 U/mL of rHuEPO by Chugai Pharmaceutical Co., Ltd.; 100 μM of 2-mercaptoethanol by Wako Pure Chemical Industries, Ltd.; 30% FCS by JRH Biosciences; 0.8% methylcellulose, IMDM solution M3134 containing methylcellulose by StemCell Technologies Inc.; 1% BSA by Sigma-Aldrich Japan K.K.; and bone-marrow cells 2.5×10^5/mL), so that the final concentration of irinotecan hydrochloride became 1 μM and 10 μM. After the medium was cultured at 37° C. under 5% CO2 for 48 hours, the number of CFU-E colonies was determined by using an inverted microscope. […] Data is indicated as the average value.
The CFU-E colony assay was conducted by the same method as that of above (1), using a male BDF-1 mouse of 11 weeks old (by Charles River Laboratories Japan, Inc.). The medium to which only 3 μM of irinotecan hydrochloride in its final concentration was added and the medium to which irinotecan hydrochloride in the same concentration as above and 600 uM of arginine were simultaneously further added were prepared and the number of CFU-E colonies was determined. […]

[3] = blood concentration of arginine after oral administration to rats; assay type: in vivo; conditions: single administration of 1.2 g/kg
Experimental: as §1

For “GGTYSCHFGPLTWVCKPQGG-NH2, C6-C15 disulfide bonding (disulfide 6-15; N-terminus assumed; SMILES CC(C)C[C@@H]1NC(=O)[C@@H]2CCCN2C(=O)CNC(=O)[C@H](Cc2ccccc2)NC(=O)[C@H](Cc2c[nH]cn2)NC(=O)[C@@H](NC(=O)[C@H](CO)NC(=O)[C@H](Cc2ccc(O)cc2)NC(=O)[C@@H](NC(=O)CNC(=O)CN)[C@@H](C)O)CSSC[C@@H](C(=O)N[C@@H](CCCCN)C(=O)N2CCC[C@H]2C(=O)N[C@@H](CCC(N)=O)C(=O)NCC(=O)NCC(N)=O)NC(=O)[C@H](C(C)C)NC(=O)[C@H](Cc2c[nH]c3ccccc23)NC(=O)[C@H]([C@@H](C)O)NC1=O) [EMP1]”, the “maximal action amount (CFU-E colony formation)” value ([1]; EMP1 1, 3, 10 and 30 μM, 48 hours culture, FIG. 6) was at least 10 µM.

In the case of `N=C(N)NCCC[C@H](N)C(=O)O` [arginine], the “number of CFU-E colonies improved on simultaneous addition of arginine” value ([2]; 600 uM arginine + 10 nM VP-16, 1 U/mL EPO, relative value to control 100%, FIG. 3) is reported as about 90%, the “increase of number of CFU-E colonies as compared with single addition of irinotecan hydrochloride” value ([2]; 600 uM arginine + 3 μM irinotecan hydrochloride, 1 U/mL EPO, FIG. 5) is reported as about 30% and the “number of CFU-E colonies improved on simultaneous addition of arginine” value ([1]; 600 μM arginine + 10 nM VP-16, 30 μM EMP1, relative value to control 100%, FIG. 7) is reported as about 90%. The blood concentration [3] was “around 600 μM”.

With `COc1cc([C@@H]2c3cc4c(cc3[C@@H](O[C@@H]3O[C@@H]5CO[C@@H](C)O[C@H]5[C@H](O)[C@H]3O)[C@H]3COC(=O)[C@H]23)OCO4)cc(OC)c1O` [VP-16, etoposide] the “CFU-E inhibiting action (inhibition of expression of CFU-E colonies)” value ([2]; 1 nM VP-16, 1 U/mL EPO, FIG. 2) was 10%, the “CFU-E inhibiting action (inhibition of expression of CFU-E colonies)” value ([2]; 10 nM VP-16, 1 U/mL EPO, FIG. 2) was 30% and the “CFU-E inhibiting action (expression of CFU-E colonies)” value ([2]; 100 nM VP-16, 1 U/mL EPO, FIG. 2) was “nearly completely inhibited”. The “decrease of number of CFU-E colonies due to single addition” value ([1]; 10 nM VP-16 alone, 30 μM EMP1, relative to control 100%, FIG. 7) was “about 30%”.

For `CCc1c2c(nc3ccc(OC(=O)N4CCC(N5CCCCC5)CC4)cc13)-c1cc3c(c(=O)n1C2)COC(=O)[C@]3(O)CC` [irinotecan hydrochloride], the “CFU-E inhibiting action (inhibition of expression of CFU-E colonies)” value ([2]; 1 μM irinotecan hydrochloride, 1 U/mL EPO, FIG. 4) was 30% and the “CFU-E inhibiting action (expression of CFU-E colonies)” value ([2]; 10 μM irinotecan hydrochloride, 1 U/mL EPO, FIG. 4) was “nearly completely inhibited”.
